Measurements reported in ChEMBL document CHEMBL5370585, “Exploration and Biological Evaluation of 1,3-Diamino-7H-pyrrol[3,2-f]quinazoline Derivatives as Dihydrofolate Reductase Inhibitors” (J Med Chem, 2023).
Converted amounts (≈) assume the structure as drawn.

Assays:
Staphylococcus aureus [1] = assay: Antibacterial activity against Staphylococcus aureus ATCC 29213 incubated for 16 to 18 hrs by CLSI based broth dilution method; assay type: functional; conditions: time 16-18 hrs
Staphylococcus aureus [2] = assay: Antibacterial activity against methicillin-resistant Staphylococcus aureus ATCC 43300 incubated for 16 to 18 hrs by CLSI based broth dilution method; assay type: functional; conditions: time 16-18 hrs
[3] = tested on: Staphylococcus epidermidis; assay: Antibacterial activity against Staphylococcus epidermidis ATCC 12228 incubated for 16 to 18 hrs by CLSI based broth dilution method; assay type: functional; conditions: time 16-18 hrs
Enterococcus faecalis = assay: Antibacterial activity against Enterococcus faecalis ATCC 29212 incubated for 16 to 18 hrs by CLSI based broth dilution method; assay type: functional; conditions: time 16-18 hrs
Escherichia coli = assay: Antibacterial activity against Escherichia coli ATCC 25922 incubated for 16 to 18 hrs by CLSI based broth dilution method; assay type: functional; conditions: time 16-18 hrs
[4] = target: T1, Dihydrofolate reductase (Homo sapiens) (UniProt P00374); assay: Inhibition of human DHFR at 1 uM incubated for 10 mins in presence of NADPH by colorimetry based analysis relative to control
T1 sequence (whole entry): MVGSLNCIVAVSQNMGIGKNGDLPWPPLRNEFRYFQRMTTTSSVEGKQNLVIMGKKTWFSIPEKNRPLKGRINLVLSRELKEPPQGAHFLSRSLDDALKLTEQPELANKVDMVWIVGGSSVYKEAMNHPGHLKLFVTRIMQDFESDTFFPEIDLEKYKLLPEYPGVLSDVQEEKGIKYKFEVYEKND

MCF7 = assay: Cytotoxicity against human MCF7 cells measured after 72 hrs by MTT assay; assay type: functional, cell-based; conditions: MCF7, 72 h
HGC-27 = assay: Cytotoxicity against human HGC-27 cells measured after 72 hrs by MTT assay; assay type: functional, cell-based; conditions: HGC-27, 72 h
HCT-116 = assay: Cytotoxicity against human HCT-116 cells measured after 72 hrs by MTT assay; assay type: functional, cell-based; conditions: HCT-116, 72 h
HepG2 = assay: Cytotoxicity against human HepG2 cells measured after 72 hrs by MTT assay; assay type: functional, cell-based; conditions: HepG2, 72 h
Acinetobacter baumannii = assay: Antibacterial activity against Acinetobacter baumannii ATCC 19606 incubated for 16 to 18 hrs by CLSI based broth dilution method; assay type: functional; conditions: time 16-18 hrs

SMILES	MIC (Staphylococcus aureus [1])	MIC (Staphylococcus aureus [2])	MIC [3]	MIC (Enterococcus faecalis)	MIC (Escherichia coli)	inhibition [4]	IC50 (MCF7)	IC50 (HGC-27)	IC50 (HCT-116)	IC50 (HepG2)	MIC (Acinetobacter baumannii)
COc1ccc2nc(Cn3ccc4c5c(N)nc(N)nc5ccc43)sc2c1	0.5 µg/mL (≈ 1.33 µM)	0.25 µg/mL (≈ 0.664 µM)	≤ 4 ng/mL	0.5 µg/mL (≈ 1.33 µM)	2 µg/mL (≈ 5.31 µM)	38.7%	1190 nM	820 nM	4420 nM	2710 nM	–
Nc1nc(N)c2c(ccc3c2ccn3Cc2ccc3nc(N)sc3c2)n1	2 µg/mL (≈ 5.53 µM)	2 µg/mL (≈ 5.53 µM)	≤ 4 ng/mL	2 µg/mL (≈ 5.53 µM)	4 µg/mL (≈ 11.1 µM)	90.2%	250 nM	6 nM	4 nM	61 nM	> 32 µg/mL
Nc1nc(N)c2c(ccc3c2ccn3Cc2cc3ccccc3s2)n1	0.125 µg/mL (≈ 0.362 µM)	0.125 µg/mL (≈ 0.362 µM)	≤ 4 ng/mL	0.125 µg/mL (≈ 0.362 µM)	0.25 µg/mL (≈ 0.724 µM)	70.9%	910 nM	510 nM	1940 nM	270 nM	32 µg/mL (≈ 92.6 µM)
Nc1nc(N)c2c(ccc3c2ccn3Cc2ccc3ocnc3c2)n1	8 µg/mL (≈ 24.2 µM)	2 µg/mL (≈ 6.05 µM)	≤ 4 ng/mL	4 µg/mL (≈ 12.1 µM)	2 µg/mL (≈ 6.05 µM)	29.1%	5870 nM	3540 nM	> 10000 nM	3650 nM	> 32 µg/mL
Nc1nc(N)c2c(ccc3c2ccn3Cc2ccc3sc(N)nc3c2)n1	> 8 µg/mL	8 µg/mL (≈ 22.1 µM)	2000 ng/mL (≈ 5.53 µM)	> 8 µg/mL	> 8 µg/mL	–	> 10000 nM	> 10000 nM	> 10000 nM	> 10000 nM	> 32 µg/mL
Nc1nc(N)c2c(ccc3c2ccn3Cc2nc3ccc(C(=O)O)cc3s2)n1	8 µg/mL (≈ 20.5 µM)	> 8 µg/mL	500 ng/mL (≈ 1.28 µM)	> 8 µg/mL	> 8 µg/mL	80.6%	8120 nM	890 nM	1600 nM	2190 nM	> 32 µg/mL
COC(=O)c1ccc2nc(Cn3ccc4c5c(N)nc(N)nc5ccc43)sc2c1	4 µg/mL (≈ 9.89 µM)	2 µg/mL (≈ 4.94 µM)	8 ng/mL (≈ 0.0198 µM)	2 µg/mL (≈ 4.94 µM)	> 8 µg/mL	–	> 10000 nM	240 nM	720 nM	490 nM	> 32 µg/mL
Nc1nc(N)c2c(ccc3c2ccn3Cc2ccc3sccc3c2)n1	0.06 µg/mL (≈ 0.174 µM)	0.03 µg/mL (≈ 0.0868 µM)	≤ 4 ng/mL	0.06 µg/mL (≈ 0.174 µM)	0.25 µg/mL (≈ 0.724 µM)	87%	510 nM	560 nM	8800 nM	530 nM	4 µg/mL (≈ 11.6 µM)
Nc1nc(N)c2c(ccc3c2ccn3Cc2ccc3occc3c2)n1	0.06 µg/mL (≈ 0.182 µM)	0.004 µg/mL (≈ 0.0121 µM)	≤ 4 ng/mL	0.03 µg/mL (≈ 0.0911 µM)	0.125 µg/mL (≈ 0.38 µM)	64.5%	1000 nM	410 nM	2460 nM	1250 nM	1 µg/mL (≈ 3.04 µM)
Nc1nc(N)c2c(ccc3c2ccn3Cc2cccc3sc(N)nc23)n1	0.25 µg/mL (≈ 0.692 µM)	0.125 µg/mL (≈ 0.346 µM)	≤ 4 ng/mL	0.25 µg/mL (≈ 0.692 µM)	0.5 µg/mL (≈ 1.38 µM)	77.4%	790 nM	1770 nM	5810 nM	260 nM	32 µg/mL (≈ 88.5 µM)
CCOC(=O)c1ccc(Cn2ccc3c4c(N)nc(N)nc4ccc32)c2ccccc12	0.5 µg/mL (≈ 1.22 µM)	0.25 µg/mL (≈ 0.608 µM)	≤ 60 ng/mL	0.5 µg/mL (≈ 1.22 µM)	64 µg/mL (≈ 156 µM)	70.9%	8250 nM	< 100 nM	870 nM	530 nM	–
Cc1cc2c3c(N)nc(N)nc3ccc2n1Cc1ccc(-c2ccccc2)cc1	4 µg/mL (≈ 10.5 µM)	4 µg/mL (≈ 10.5 µM)	≤ 4 ng/mL	4 µg/mL (≈ 10.5 µM)	> 8 µg/mL	–	1470 nM	7060 nM	2260 nM	1310 nM	> 32 µg/mL
COC(=O)c1ccc2nc(Cn3ccc4c5c(N)nc(N)nc5ccc43)ccc2c1	0.5 µg/mL (≈ 1.25 µM)	0.25 µg/mL (≈ 0.627 µM)	250 ng/mL (≈ 0.627 µM)	0.25 µg/mL (≈ 0.627 µM)	2 µg/mL (≈ 5.02 µM)	64.5%	850 nM	< 100 nM	210 nM	430 nM	–
COc1cc(Cc2cnc(N)nc2N)c2c(c1OC)OC(C1CC1)C=C2 (configuration not stated)	0.06 µg/mL (≈ 0.169 µM)	0.06 µg/mL (≈ 0.169 µM)	≤ 4 ng/mL	0.06 µg/mL (≈ 0.169 µM)	1 µg/mL (≈ 2.82 µM)	–	–	–	–	–	–
Nc1nc(N)c2c(ccc3c2ccn3Cc2ccc(Br)c3ccccc23)n1	0.25 µg/mL (≈ 0.598 µM)	0.125 µg/mL (≈ 0.299 µM)	≤ 4 ng/mL	0.125 µg/mL (≈ 0.299 µM)	1 µg/mL (≈ 2.39 µM)	74.1%	190 nM	< 100 nM	< 100 nM	< 100 nM	–
Nc1nc(N)c2c(ccc3c2ccn3Cc2ccc3ccccc3c2)n1	0.5 µg/mL (≈ 1.47 µM)	0.25 µg/mL (≈ 0.737 µM)	500 ng/mL (≈ 1.47 µM)	0.5 µg/mL (≈ 1.47 µM)	0.5 µg/mL (≈ 1.47 µM)	70.9%	> 1000 nM	29 nM	50 nM	110 nM	–
COC(=O)c1ccc(Cn2ccc3c4c(N)nc(N)nc4ccc32)c2ccccc12	0.004 µg/mL (≈ 0.0101 µM)	0.004 µg/mL (≈ 0.0101 µM)	≤ 4 ng/mL	0.016 µg/mL (≈ 0.0403 µM)	2 µg/mL (≈ 5.03 µM)	83.9%	1320 nM	< 100 nM	180 nM	190 nM	–
Nc1nc(N)c2c(ccc3c2ccn3Cc2ccc(B(O)O)c3ccccc23)n1	0.25 µg/mL (≈ 0.652 µM)	0.125 µg/mL (≈ 0.326 µM)	≤ 4 ng/mL	0.125 µg/mL (≈ 0.326 µM)	1 µg/mL (≈ 2.61 µM)	77.4%	110 nM	< 100 nM	< 100 nM	< 100 nM	–
Nc1nc(N)c2c(ccc3c2ccn3Cc2ccc3cc(C(=O)O)ccc3c2)n1	0.004 µg/mL (≈ 0.0104 µM)	0.004 µg/mL (≈ 0.0104 µM)	≤ 4 ng/mL	50 µg/mL (≈ 130 µM)	> 128 µg/mL	98.8%	550 nM	95 nM	100 nM	140 nM	–
Nc1nc(N)c2c(ccc3c2ccn3Cc2ccc3cc(C(=O)O)ccc3n2)n1	32 µg/mL (≈ 83.2 µM)	32 µg/mL (≈ 83.2 µM)	250 ng/mL (≈ 0.65 µM)	> 8 µg/mL	> 128 µg/mL	77.4%	9740 nM	4210 nM	9570 nM	4650 nM	–
